In patent US10888551B2, “Drug delivery system” (Indian Institute of Technology, Bombay, priority 2016, dated 2021):
Structures can show the parent of a compound that is named as a salt.

System: KB cells
Experiment: Cell migration wound healing assay
Assay type: cell-based, Human
Conditions: 10 μM, 9 hours

SMILES: CNC(=O)c1cc(Oc2ccc(NC(=O)Nc3ccc(Cl)c(C(F)(F)F)c3)cc2)ccn1 [Sraf, Sorafenib tosylate]
- retardation of migration of KB cells: 30±9%
- width of the wound (control 525±23 μm at 0 h): 303±27 μm
